Here are results for 1 substance from US20150025019A1, “Method for Dosage Adjustment of Drugs that Prevent Elastic Fiber Breakdown” (priority 2013, published 2015).

Entries after “also recorded” stand apart in the source; their conditions may differ.

The conditions of data set [1]: therapy in cystic fibrosis; cited from earlier work.
For data set [2], the system named is lung inflammation in a cystic fibrosis model. As to conditions: cystic fibrosis model in mice; cited from earlier work.
The test system of data set [3] is pulmonary emphysema induced by tobacco smoke. As to conditions: mice exposed to tobacco smoke over a 6-month period; cited from earlier work.
A further data set relates to elastic fiber breakdown. Put plainly: Illustrative examples of titrating aerosolized hyaluronan by sputum desmosine and isodesmosine level. In kind it is in vivo, human. On the procedure:
Examples of the use of the invention to titrate treatment with aerosolized hyaluronan are given below:
1) A patient with pulmonary emphysema is found to have an abnormally high level of sputum desmosine and isodesmosine (20 nanograms/gram protein compared to a normal level of less than 5 nanograms/g protein), and begins treatment with a dose of 0.1% hyaluronan that is inhaled for 20 minutes once daily in the morning. After 1 month, the sputum desmosine and isodesmosine level is measured and found to be 10 nanograms/g of protein in the sputum, which is more than twice the upper limit of normal. The patient is then switched to a twice daily inhalation for 20 minutes in the morning and evening. Two weeks later, the patient's sputum desmosine and isodesmosine level has fallen to 1 nanogram/g of protein, which is within the normal range. Their treatment is therefore left unchanged and sputum desmosine and isodesmsoine levels are measured at monthly intervals to ensure that the drug remains effective in preventing elastic fiber breakdown.
2) A patient with a history of smoking is tested for sputum desmosine and isodesmosine levels. They are found to have a mildly elevated level of 6 nanograms/g protein, and is placed on low dose hyaluronan, involving a single daily 20 minute inhalation of 0.05% hyaluronan. Two weeks later, their sputum desmosine and isodesmosine level is 1 nanogram/g protein, which is within the normal range. Based on this finding, their treatment is lowered to a 20 minute inhalation of hyaluronan every other day. Two weeks later, their sputum desmosine and isodesmsoine level has risen to 6 nanograms/g protein, which is above the upper limit of normal. Their treatment regimen is therefore returned to a 20 minute inhalation every day. Two weeks later, their sputum desmosine and isodesmosine level has fallen to 1 nanogram/g protein. Their treatment needs no further modification, and sputum desmosine and isodesmosine levels are measured at monthly intervals to ensure that the drug remains effective in preventing elastic fiber breakdown.

Data set [4] is described as follows: Clinical safety trial of hyaluronan aerosol in COPD patients: safety endpoints. Type of data set: in vivo, human. The method, then: (§1) With this background, efforts continue to develop hyaluronan aerosol as a potential therapy for chronic obstructive pulmonary disease (COPD) related to alpha-1 antitrypsin deficiency (AATD) and not related to AATD. As part of that development this clinical safety trial was conducted in 11 COPD patients, 8 of whom received hyaluronan and 3 received placebo. The study protocol was conducted under IND number 70299. The primary aim of the study was to establish safety and to evaluate biomarker activity with respect to body and lung elastin degradation.
Eleven patients were recruited from 2 Centers: 9 patients from Research Associates in Tucson Ariz. and 2 patients from St. Luke's-Roosevelt Hospital Pulmonary Disease Center in New York. All patients fulfilled the diagnostic criteria of COPD with GOLD grades 2 and 3 with moderate airway obstruction (FEV1 above 40% of predicted) and at least a ten pack-year history of cigarette smoking. No patients were actively smoking at the time of recruitment and smoking cessation had occurred over one year prior to the study in all patients. Six patients were male […]. All were Caucasian. Three patients received placebo. Eight patients received hyaluronan CTX-100.
(§2) Each patient self-administered 0.01% hyaluronan from a vialed volume of 3 ml by aerosol from a compressor-delivered Pari nebulizer, morning and night for 14 days. The primary endpoints to assess safety were adverse events, oxygen saturation, spirometry, lung volumes, physical examination, vital signs, electrocardiogram and laboratory evaluations (CBC, serum chemistries and urinalysis). Additionally, desmosine and isodesmosine concentrations in sputum, plasma and urine were measured to assess a possible effect on elastin degradation (44, 45)

Data set [5] concerns emphysema induced by elastase enzymes. Conditions: animals; aerosol; cited from earlier work.
A further data set has as its system elastin fibers. Conditions: in vitro; cited from earlier work.
Another data set has as its system elastin degradation. Put plainly: Desmosine and isodesmosine concentrations in sputum, plasma and urine of COPD patients in the clinical trial. Type of data set: in vivo, human. As to conditions: 2 weeks of hyaluronan aerosol; for Levels of desmosine and isodesmosine in sputum: all 6 patients who provided sputum samples. On the procedure: as §1, §2
Sputum samples collected from patients with emphysema and other inflammatory lung diseases are chemically degraded to separate the component amino acids of elastic fibers and other proteins. This procedure may involve hydrolyzing the sample with an acid such as HCl or a base such as NaOH, according to procedures well known to the art. The resulting hydrolysate is then measured for total elastin-specific amino acids, desmosine and isodesmosine, using a variety of procedures, including liquid chromatography or immunoassay, ultraviolet spectroscopy, fluorescence spectroscopy, mass spectrometry, or other spectroscopic techniques well-known to the art.
Desmosine and isodesmosine content of the sputum sample is then normalized to one or more parameters, such as total protein, albumin, or free amino acids, according to procedures well known to the art. The final value is expressed as total desmosine/isodesmosine per unit volume, protein, albumin, amino acids or other relevant parameter. Results obtained from the same patient over time may be used to determine variations in the amount of lung elastic fiber injury.

The mark [6] stands for this setting: listed as aerosolized hyaluronan.

In the case of hyaluronan, the “Tolerability of hypertonic saline” value in data set [1] is on record as “improve tolerability of hypertonic saline”. For the same substance, the Lung inflammation entry in data set [2] is “reduce lung inflammation in a cystic fibrosis model in mice”. In addition, in data set [3], the “Pulmonary emphysema induced by tobacco smoke” value was “decrease the pulmonary emphysema induced in mice exposed to tobacco smoke”. Moreover, the “Sputum desmosine and isodesmosine level” value with elastic fiber breakdown (patient with history of smoking, start 6, single daily 20 minute inhalation of 0.05% hyaluronan, two weeks later) is 1 nanogram/g protein; with elastic fiber breakdown (patient with pulmonary emphysema, start 20, 0.1% hyaluronan inhaled 20 minutes once daily, after 1 month) it was 10 nanograms/g of protein; in the data set on elastic fiber breakdown (same patient, 0.1% hyaluronan, twice daily 20 minute inhalation, two weeks later), 1 nanogram/g of protein; with elastic fiber breakdown (same patient, 20 minute inhalation every other day, two weeks later), 6 nanograms/g protein; in the data set with elastic fiber breakdown (same patient, returned to 20 minute inhalation every day, two weeks later), 1 nanogram/g protein. In addition, the Adverse events result in data set [4] (0.01% hyaluronan, 3 ml by aerosol, morning and night for 14 days) was “mild to moderate”. Besides, the “Effect on EKG” value in data set [4] (2 weeks of administration) is reported as “no significant effect”. Further, the “Effect on routine laboratory procedures” value in data set [4] (2 weeks of administration) is “no significant effect”. For the same substance, in data set [4] (2 weeks of administration), the “Effect on spirometric indices” value is “no significant effect”. Further, the “Severity of emphysema induced by elastase enzymes” value in data set [5] was “decrease the severity of emphysema induced by elastase enzymes”. The “Elastase degradation of elastin fibers” value in the data set on elastin fibers was “block elastase degradation of elastin fibers in vitro”. Besides, the “Blood levels of desmosine and isodesmosine” value with elastin degradation is on record as “significant reduction”; with elastin degradation (setting [6]) it was “statistically significant decline”. Also, the “Urine levels of desmosine and isodesmosine” value with elastin degradation is given as “significant reduction”; in the data set with elastin degradation (setting [6]), “statistically significant decline”. For the same substance, the figures for the “Levels of desmosine and isodesmosine in sputum” value in the data set on elastin degradation and with elastin degradation (setting [6]) were “statistically significant reduction; also recorded: Reductions” and “statistically significant decline”, respectively.
